According to publication PMC12497685, “Anticoronavirus Isoquinoline Alkaloids: Unraveling the Secrets of Their Structure–Activity Relationship” (Influenza and Other Respiratory Viruses, 2025):
Where two headings read alike, the source gives them in different places.

Tests used:
Assay type in all cases: cell-based
[1] = tested on: SARS‐CoV‐2 spike protein pseudotyped lentivirus, Delta variant; test: organism not typed; settings: read-out: Pseudovirus assay, IC50, Delta
[2] = tested on: SARS‐CoV‐2 spike protein pseudotyped lentivirus, D614G variant; settings: read-out: Pseudovirus assay, IC50, D614G
[3] = tested on: SARS‐CoV‐2 spike protein pseudotyped lentivirus, Omicron variant; test: organism not typed; settings: read-out: Pseudovirus assay, IC50, Omicron
[4] = tested on: SARS‐CoV‐2 spike protein pseudotyped lentivirus, D614G, Delta, and Omicron variants; settings: for IC50: read-out: Pseudovirus assay, IC50 values as a range over D614G, Delta, and Omicron variants

| Molecule | IC50 ([1]; HEK-293T) [nM] | IC50 [2] [nM] | IC50 ([3]; HEK-293T) [nM] | IC50 ([1]; mean ± SEM (n = 3)) [nM] | IC50 [4] [nM] | IC50 ([3]; mean ± SEM (n = 3)) [nM] | IC50 ([2]; mean ± SEM (n = 3)) [nM] | activity in SARS‐CoV‐2 S‐protein and ACE2 binding (pseudovirus) assay (in words) [4] |
| --- | --- | --- | --- | --- | --- | --- | --- | --- |
| COc1ccc2cc1Oc1ccc(cc1)C[C@H]1c3c(cc4c(c3Oc3cc5c(cc3OC)CCN(C)[C@@H]5C2)OCO4)CCN1C [Cepharantine, Cepharanthine, reference compound] | 1640 ± 180 | 480 ± 90 | 1310 ± 70 | – | – | – | – | – |
| (+)‐aromoline [Compound 16] | – | 670 ± 90 | – | 470 ± 80 | 470 to 660 | 860 ± 120 | – | – |
| CC(C)C[C@H](NC(=O)[C@H]1O[C@@H]1C(=O)O)C(=O)NCCCCN=C(N)N [E‐64, reference compound] | – | – | – | 23100 ± 1300 | 22700 to 23100 | 22700 ± 1280 | 23100 ± 630 | – |
| COc1cc2c3cc1Oc1c(O)c(OC)cc4c1[C@@H](Cc1ccc(O)c(c1)Oc1ccc(cc1)C[C@@H]3N(C)CC2)N(C)CC4 [Compound 19, (+)‐obamegine] | 2610 ± 420 | 1400 ± 350 | 1190 ± 160 | – | – | – | – | – |
| COc1cc2c3cc1Oc1c(OC)c(OC)cc4c1[C@@H](Cc1ccc(O)c(c1)Oc1ccc(cc1)C[C@@H]3N(C)CC2)N(C)CC4 [Compound 17, (+)‐berbamine] | 2560 ± 160 | 2230 ± 490 | 2290 ± 290 | – | – | – | – | – |
| (±)‐Haemanthidine [Compound 1] | – | – | – | > 10000 | – | – | > 10000 | inactive at nontoxic concentration |
